The values below come from the COVID Moonshot data (paper PMC7615835).

Values joined by “and” are separate entries in the source; they are usually repeats but may differ in a detail not shown here. Identical values can stand only once.

This experiment addresses SARS-CoV-2 Main Protease (SARS-CoV-2) (UniProt P0DTD1).
As to `Cc1noc(COc2cc(Cl)cc(CC(=O)Nc3cnccc3C)c2)n1`, the 50% inhibitory concentration (IC50) was 23.9 µM.

With `O=S(=O)(Nc1ccccc1SCc1cccc(Cl)c1F)c1cc(Cl)sc1Cl`, the IC50 worked out at 2.23 µM.

The compound `N#CCC1(CS(=O)(=O)N2Cc3ccc(Cl)cc3C3(CCN(c4cncc5ccccc45)C3=O)C2)CC1` (centres undefined) yielded an IC50 of 0.337 µM.

In turn, `O=C(Nc1n[nH]c2ccnc(Br)c12)C1CCOc2ccc(Cl)cc21` (centres undefined) came in with an IC50 of more than 99.5 µM.

As for `COc1ncc(NC(=O)Cc2cccc(Cl)c2)c2ccccc12`, the IC50 is more than 99.5 µM.

In the case of `CCOc1c(Cl)cccc1CC(=O)Nc1cncc2ccccc12`, the IC50 worked out at 6.96 µM.

As for `CCS(=O)(=O)c1c(Cl)cccc1CNC(c1cccc(F)c1)C1CC1` (centres undefined), the IC50 was more than 99.5 µM.

The compound `O=C(NC1CCCCC1)[C@@H]1CN(C(=O)CCl)CCN1S(=O)(=O)c1ccsc1` (stereo in doubt) yielded an IC50 of 1.14 µM.

`O=C(NCCc1cccc(F)c1)C(c1cccnc1)N(C(=O)c1cocn1)C1CCc2ccccc21` (centres undefined): the IC50 is more than 99.5 µM.

`O=C(Cc1cccc(Cl)c1)Nc1nnc2ccccn12` came in with an IC50 of more than 99.5 µM.

`O=C(Cc1cc(Cl)cc(NC(c2ccccc2)c2ccccc2)c1)Nc1cncc2ccccc12` returned an IC50 of 3.36 µM.

Compound `O=C(Cc1cc(Cl)cc(Nc2c(Cl)c(F)nc(F)c2Cl)c1)Nc1cncc2ccccc12` displayed a half-inhibitory concentration (IC50) of 2.16 µM.

Regarding `Cc1cnoc1C(=O)N(c1ccc(C(C)(C)C)cc1)C(C(=O)NCCc1cccc(F)c1)c1cccnc1` (centres undefined), the IC50 was more than 99.5 µM.

With `O=C(CCl)N1CCN(Cc2cccc3ccccc23)CC1`, the IC50 stood at 5.76 µM.

Compound `C=CC(=O)NCC(=O)N(CCN1CCOCC1)Cc1sccc1Br` had an IC50 of more than 99.5 µM.

Regarding `O=C(Cn1nnc2ccccc21)Nc1cccc(Cl)c1`, the IC50 was more than 99.5 µM.

`Cn1nc(C(=O)N2CCOCC2)cc1C(=O)N(c1ccc(C(C)(C)C)cc1)C(C(=O)NCCc1cccc(F)c1)c1cccnc1` (centres undefined) registered an IC50 of 92.1 µM.

The compound `O=C(CC1(C(=O)Nc2cncc3ccccc23)CCOc2ccc(Cl)cc21)Nc1nnco1` (centres undefined) displayed an IC50 of more than 99.5 µM.

Compound `Cc1ccc(Nc2ccccc2C(=O)N2CCC(C3CCNC3)CC2)cc1` (centres undefined) returned an IC50 of more than 99.5 µM.

`CC(C)(C)c1ccc(N(C(=O)c2ccco2)C(C(=O)NCc2ccccc2)c2cccnc2)cc1` (centres undefined) showed an IC50 of 4.36 µM.

`CN(C)S(=O)(=O)N1CCN(C(=O)C2Nc3ccccc3S(=O)(=O)N2)CC1` (centres undefined) returned a half-inhibitory concentration (IC50) of more than 99.5 µM.

Consider `CC1CN(C)CCN1C(=O)CC1(C(=O)Nc2cncc3ccccc23)CCOc2ccc(Cl)cc21` (centres undefined), for which the IC50 is 7.87 µM and 4.85 µM.

`CC(c1ccccc1)N(C(=O)c1cnc[nH]1)C(C(=O)NCCc1cccc(F)c1)c1cccnc1` (centres undefined) gave an IC50 of more than 99 µM.

In turn, `Cc1ccncc1NC(=O)Cc1cc(Cl)cc(-c2ncc[nH]2)c1` registered an IC50 of more than 99.5 µM.

As for `O=C(c1cc(F)cc(F)c1)N1CCOc2cc(O)ccc2C1`, the IC50 is more than 99.5 µM.

In turn, `COc1ccc2cncc(NC(=O)[C@@]3(OC)CCOc4ccc(Cl)cc43)c2c1` (stereo in doubt) displayed an IC50 of 4.18 µM.

For the compound `Cn1cnc2cc(N(C(=O)c3cocn3)C(C(=O)NCCc3cccc(F)c3)c3cccnc3)ccc21` (centres undefined), the IC50 is more than 99.5 µM.

Take `CS(=O)(=O)N1CCc2ccc(Cl)cc2C1C(=O)Nc1cncc2ccccc12` (centres undefined): the IC50 was determined as 1.6 µM.

`CC1(c2ccc(N(C(=O)c3cocn3)C(C(=O)NCCc3cccc(F)c3)c3cccnc3)cc2)OCCO1` (centres undefined) showed an IC50 of 83.1 µM.

`O=C(Cc1cc(Cl)cc(N2CCN(c3ccccc3O)CC2)c1)Nc1cncc2ccccc12` showed a concentration for half-maximal inhibition (IC50) of 1.85 µM.

`CNC(=O)C1(N2Cc3ccc(Cl)cc3C3(CCN(c4cncc5ccc(OCCN(C)C)cc45)C3=O)C2)CC1` (centres undefined) yielded an IC50 of 0.614 µM.

On to `O=C(Cc1cccc(Cl)c1)Nc1cncc2cccc(Cl)c12`, for which the IC50 amounted to 0.594 µM.

In turn, `CCCc1cc2c(cc1S(=O)(=O)N1CCN(c3ncccn3)CC1)OCO2` showed an IC50 of more than 99.5 µM.

`O=C(Cc1cc(Cl)cc(NCc2ccc(Cl)c(C(F)(F)F)c2)c1)Nc1cncc2ccccc12` returned an IC50 of 2.98 µM.

`O=C(CCl)N1CCCN(S(=O)(=O)c2c(F)cccc2F)CC1` came in with an IC50 of 20.2 µM.

`CN1CCN(c2ncc(C(C(=O)NCCc3cccc(F)c3)N(C(=O)c3cocn3)c3ccc(C(C)(C)C)cc3)cn2)CC1` (centres undefined) yielded an IC50 of more than 99.5 µM.

`O=C1CC(Oc2cc(Cl)cc(CC(=O)Nn3cnc4ccccc4c3=O)c2)N1` (centres undefined) came in with an IC50 of more than 99.5 µM.

In turn, `COCc1csc(-c2nnc(-c3sc(-c4ccccc4)nc3C)o2)c1` registered a half-maximal inhibitory concentration (IC50) of more than 99.5 µM.

The compound `O=C1CCCN1Cc1cccc(C(=O)N2CCC(C3CCNC3)CC2)c1` (centres undefined) showed an IC50 of more than 99.5 µM.

On to `O=C(Cc1cccc(Cl)c1)Nc1ncn2ccccc12`, for which the IC50 was more than 99.5 µM.

With `O=C(Nc1ccc2nccnc2c1)c1csc2cncn12`, the IC50 is more than 99.5 µM.

`COc1ccc(Nc2cc(Cl)cc(CC(=O)Nc3cncc4ccccc34)c2)c([N+](=O)[O-])c1` gave an IC50 of 2.12 µM.

`Cn1ccn2c(CNC(=O)c3ccc4ncsc4c3)nnc2c1=O` yielded an IC50 of more than 99.5 µM.

Turning to `CC(C)NC(=O)CN1CC(C(=O)Nc2cncc3ccccc23)c2cc(Cl)ccc2C1=O` (centres undefined), the IC50 came to 0.389 µM.

On to `O=C(NCCc1cccc(F)c1)C(c1cccnc1)N(Cc1ccccc1)C(=O)c1ccco1` (centres undefined), for which the IC50 was more than 99.5 µM.

Compound `O=C1O[C@@]2(CCOc3ccc(Cl)cc32)C(=O)N1c1cncc2ccccc12` (stereo in doubt) displayed an IC50 of more than 99.5 µM.

Turning to `CCN(CC)S(=O)(=O)c1ccc(Nc2cc(Cl)cc(CC(=O)Nc3cncc4ccccc34)c2)cc1`, the IC50 is 2.15 µM.

The compound `CC(C)S(=O)(=O)c1ccc(N(C(=O)c2cnc[nH]2)C(C(=O)NCCc2cccc(F)c2)c2cccnc2)cc1` (centres undefined) returned an IC50 of more than 99 µM.

Regarding `O=C1CC(C(=O)Nc2cncc3ccccc23)c2cc(Cl)cc(Cl)c2N1` (centres undefined), the concentration for half-maximal inhibition (IC50) was 2.45 µM and 3.76 µM.

In turn, `O=C(Nc1cncc2ccccc12)C1CCOc2c(OCC3CC3)cc(Cl)cc21` (centres undefined) displayed an IC50 of more than 2.49 µM.

For `O=C(Cc1cc(Cl)cc(Nc2cccc(OC(F)(F)F)c2)c1)Nc1cncc2ccccc12`, the IC50 turned out to be 1.93 µM.

`O=C1NCC(C(=O)Nc2cnc3ccccn23)c2cc(Cl)ccc21` (centres undefined) gave an IC50 of 5.93 µM.

In turn, `O=C(Cc1cc(Cl)cc(N2CCC(Cc3ccccc3)CC2)c1)Nc1cncc2ccccc12` returned an IC50 of 3.35 µM.

With `O=C(NCCc1cccc(F)c1)C(c1cccnc1)N(C(=O)c1cocn1)C1COC2(CCCC2)C1` (centres undefined), the IC50 was more than 99.5 µM.

`CS(=O)(=O)N1CCN(C(=O)CCl)CC1c1ccccc1` (centres undefined) came in with an IC50 of 10.6 µM.

`Cc1nc(C2CC2)oc1C(=O)N(c1ccc(C(C)(C)C)cc1)C(C(=O)NCCc1cccc(F)c1)c1cccnc1` (centres undefined) returned an IC50 of more than 99.5 µM.

Take `O=C(CCl)Nc1nc2c(S(=O)(=O)NCCc3ccccc3)cccc2s1`: the IC50 was 5.03 µM and 14.2 µM and 37.5 µM.

The compound `O=C(Nc1[nH]nc2cccnc12)C1CCOc2ccc(Cl)cc21` (centres undefined) showed an IC50 of more than 99.5 µM.

`CN1CC(C#N)(CS(=O)(=O)N2Cc3ccc(Cl)cc3C(C(=O)Nc3cncc4ccccc34)C2)C1` (centres undefined) came in with an IC50 of 0.151 µM.

Turning to `C=CC(=O)NCc1ccc(C(=O)NCc2cc(C)cc3c(C)c(C)[nH]c23)cc1`, the IC50 is more than 99.5 µM.

On to `CC(Cn1ccnc1C#N)c1cccc(Cl)c1` (centres undefined), for which the IC50 is more than 99.5 µM.

With `O=C(Cc1cccc(Cl)c1)Nc1cncc2cc(F)cc(Cl)c12`, the IC50 was found to be 0.718 µM.

Regarding `O=C(Nn1cnc2ccccc21)C(Cc1cccc(Cl)c1)c1ccc(N2CCOCC2)cc1` (centres undefined), the IC50 was more than 99.5 µM.

The compound `CC(C)(C)c1ccc(N(C(=O)c2ccco2)C(C(=O)NCCc2cccc(F)c2)c2cncc3ccccc23)cc1` (centres undefined) had an IC50 of 0.403 µM.

Broadly, the IC50 is the concentration at which inhibition is half-maximal.
